Experimental data from ChEMBL document CHEMBL1201862, “PubChem BioAssay data set” (2004).
Active and inactive are the calls of the source. Rule as the data show it: actives have a measured IC50 and inactives only a lower limit.

Molecular target: Envelope glycoprotein gp160 (Human immunodeficiency virus 1, UniProt Q6QLK5)
Test: inhibitors of HIV fusion peptide binding, primary screen, biochemical, uHTS, fluorescence dequenching (AID 1986)

Sequence of Envelope glycoprotein gp160 (Q6QLK5 whole entry, the tested form may be a part): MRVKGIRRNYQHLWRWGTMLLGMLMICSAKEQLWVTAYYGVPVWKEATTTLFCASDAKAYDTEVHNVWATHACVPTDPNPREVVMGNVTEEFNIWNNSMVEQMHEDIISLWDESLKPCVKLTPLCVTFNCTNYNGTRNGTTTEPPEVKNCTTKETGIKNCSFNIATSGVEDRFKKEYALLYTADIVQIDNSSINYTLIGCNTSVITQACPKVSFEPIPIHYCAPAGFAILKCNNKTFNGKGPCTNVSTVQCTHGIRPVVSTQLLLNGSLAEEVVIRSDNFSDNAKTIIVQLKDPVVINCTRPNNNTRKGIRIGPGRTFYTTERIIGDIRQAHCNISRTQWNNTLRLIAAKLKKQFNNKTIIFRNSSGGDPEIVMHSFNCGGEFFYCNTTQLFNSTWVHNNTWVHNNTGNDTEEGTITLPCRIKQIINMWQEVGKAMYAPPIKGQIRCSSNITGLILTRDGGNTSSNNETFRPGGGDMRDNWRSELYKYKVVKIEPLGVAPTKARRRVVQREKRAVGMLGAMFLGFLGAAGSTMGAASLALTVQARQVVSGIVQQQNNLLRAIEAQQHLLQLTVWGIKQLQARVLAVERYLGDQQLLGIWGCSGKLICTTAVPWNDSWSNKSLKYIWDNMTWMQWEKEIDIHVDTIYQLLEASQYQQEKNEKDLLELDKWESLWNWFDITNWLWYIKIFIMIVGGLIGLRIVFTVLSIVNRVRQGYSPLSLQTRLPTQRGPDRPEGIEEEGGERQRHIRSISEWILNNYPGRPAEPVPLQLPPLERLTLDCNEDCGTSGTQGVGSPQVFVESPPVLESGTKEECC

SMILES | IC50
COc1cc(NS(=O)(=O)c2ccc(Nc3nc(-c4ccccc4)cs3)cc2)nc(OC)n1 | 20.4 µM (active)
COc1cccc(-c2coc3c(C)c4oc(=O)c(CCC(=O)O)c(C)c4cc23)c1 | 22.7 µM (active)
